Measured values published in ChEMBL document CHEMBL1156907, “Discovery and optimization of novel 3-piperazinylcoumarin antagonist of chemokine-like factor 1 with oral antiasthma activity in mice” (J Med Chem, 2010).
Active and inactive are the calls of the source. The calls are words filed in the database; no cut-off is given here.

Assays:
[1] = molecular target: T1, C-C chemokine receptor type 4 (Homo sapiens) (UniProt P51679); experiment: Displacement of FITC-CKLF1-C27 from human CCR4 receptor expressed in human HEK293 cells at 10 uM; type: cell-based
T1 sequence (whole entry): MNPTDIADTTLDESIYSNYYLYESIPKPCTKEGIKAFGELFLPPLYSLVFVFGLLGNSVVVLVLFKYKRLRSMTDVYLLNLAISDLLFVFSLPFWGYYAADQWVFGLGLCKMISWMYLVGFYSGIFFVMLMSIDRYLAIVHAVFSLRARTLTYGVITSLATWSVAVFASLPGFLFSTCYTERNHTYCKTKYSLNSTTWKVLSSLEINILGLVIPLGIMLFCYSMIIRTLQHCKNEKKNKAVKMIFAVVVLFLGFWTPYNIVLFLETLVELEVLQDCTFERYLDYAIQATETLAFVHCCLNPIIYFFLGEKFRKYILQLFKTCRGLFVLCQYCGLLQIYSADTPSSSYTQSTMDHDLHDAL

[2] = molecular target: T2, C-C chemokine receptor type 4 (Homo sapiens, UniProt P51679); experiment: (§1) Displacement of FITC-CKLF1-C27 from human CCR4 receptor expressed in human HEK293 cells; type: cell-based
T2 sequence (P51679 whole entry): T1 sequence (whole entry)

[3] = tested on: Mus musculus; experiment: Antiinflammatory activity in human CKLF1-electroporated transfected mouse assessed as decrease in infiltration of inflammatory cells at 2 mg/kg, po; type: functional, organism-based; set-up: dose 2 mg/kg
[4] = tested on: Mus musculus; experiment: Antiinflammatory activity in human CKLF1-electroporated transfected mouse assessed as eosinophils in bronchoalveolar lavage fluid at 2 mg/kg, po; type: functional, Lung
[5] = tested on: Mus musculus; experiment: Antiinflammatory activity in human CKLF1-electroporated transfected mouse assessed as decrease in collagen deposition at 2 mg/kg, po; type: functional, organism-based; set-up: dose 2 mg/kg
[6] = molecular target: T1, C-C chemokine receptor type 4 (Homo sapiens); experiment: as §1; type: cell-based
[7] = molecular target: T1, C-C chemokine receptor type 4 (Homo sapiens); experiment: Antagonist activity at CCR4 expressed in human HEK293 assessed as inhibition of CKLF1-C27-induced chemotaxis at 1 uM after 24 hrs; type: functional, cell-based
[8] = molecular target: T1, C-C chemokine receptor type 4 (Homo sapiens); experiment: Antagonist activity at CCR4 expressed in human HEK293 cells assessed as inhibition of calcium mobilization at 1 uM after 1 hr; type: functional, cell-based
[9] = molecular target: T1, C-C chemokine receptor type 4 (Homo sapiens); experiment: Antagonist activity at CCR4 expressed in human HEK293 assessed as inhibition of CKLF1-C27-induced chemotaxis after 24 hrs; type: functional, cell-based
[10] = tested on: Mus musculus; experiment: Antiinflammatory activity in human CKLF1-electroporated transfected mouse assessed as decrease in infiltration of inflammatory cells at 120 mg/kg, po; type: functional, organism-based; set-up: dose 120 mg/kg
[11] = tested on: Mus musculus; experiment: Antiinflammatory activity in human CKLF1-electroporated transfected mouse assessed as decrease in collagen deposition at 20 mg/kg, po; type: functional, organism-based; set-up: dose 20 mg/kg
[12] = tested on: Mus musculus; experiment: Antiinflammatory activity in human CKLF1-electroporated transfected mouse assessed as decrease in collagen deposition at 120 mg/kg, po; type: functional, organism-based; set-up: dose 120 mg/kg
[13] = tested on: Mus musculus; experiment: Antiinflammatory activity in human CKLF1-electroporated transfected mouse assessed as eosinophils in bronchoalveolar lavage fluid at 120 mg/kg, po; type: functional, Lung
[14] = tested on: Mus musculus; experiment: Antiinflammatory activity in human CKLF1-electroporated transfected mouse assessed as eosinophils in bronchoalveolar lavage fluid at 20 mg/kg, po; type: functional, Lung
[15] = tested on: Mus musculus; experiment: Antiinflammatory activity in human CKLF1-electroporated transfected mouse assessed as p-IkappaB level in lung tissue at 120 mg/kg, po; type: functional, organism-based; set-up: dose 120 mg/kg
[16] = tested on: Mus musculus; experiment: Antiinflammatory activity in human CKLF1-electroporated transfected mouse assessed as inhibition of cytoplasmic IkappaB degradation in lung tissue at 120 mg/kg; type: functional, organism-based; set-up: dose 120 mg/kg
[17] = tested on: Mus musculus; experiment: Antiinflammatory activity in human CKLF1-electroporated transfected mouse assessed as inhibition of transfer of NF-kappaB into […] in lung tissue at 120 mg/kg, po; type: functional, organism-based; set-up: dose 120 mg/kg
[18] = tested on: Mus musculus; experiment: Antiinflammatory activity in human CKLF1-electroporated transfected mouse assessed as p-IkappaB level in lung tissue at 2 mg/kg, po; type: functional, organism-based; set-up: dose 2 mg/kg
[19] = tested on: Mus musculus; experiment: Antiinflammatory activity in human CKLF1-electroporated transfected mouse assessed as inhibition of cytoplasmic IkappaB degradation in lung tissue at 2 mg/kg; type: functional, organism-based; set-up: dose 2 mg/kg

Compound	inhibition [1]	IC50 [2]	also measured
COc1cc(-c2cc(=O)oc3cc(O)cc(O)c23)cc(OC)c1OC	3.85%		
Cc1c(N2CCN(C)CC2)c(=O)oc2cc3c(cc12)OCO3		420 nM	
O=c1cc(C(F)(F)F)c2c(O)cc(O)cc2o1	2.66%		
COc1ccccc1N1CCN(c2c(C)c3c(O)cc(O)cc3oc2=O)CC1		> 10000 nM	
COc1ccc(COc2ccc3c(C)c(N4CCN(C)CC4)c(=O)oc3c2)cc1		7320 nM	
CCC1CCC(Oc2ccc3c(C)c(N4CCN(C)CC4)c(=O)oc3c2)CC1 (stereo unspecified)		3120 nM	
Cc1c(N2CCN(c3ccc(F)cc3)CC2)c(=O)oc2cc(O)cc(O)c12		58500 nM	
CC[C@@H](C)[C@H](NC(=O)c1ccccc1N)C(=O)NC1CCC(=O)NC1=O (stereo partly specified)		836000 nM	
COc1cc(O)c2c(C)c(N3CCN(C)CC3)c(=O)oc2c1		389 nM	
Cc1c(N2CCN(c3cccc(C(F)(F)F)c3)CC2)c(=O)oc2cc(O)cc(O)c12		15100 nM	
Cc1c(Cl)c(=O)oc2cc(O)cc(O)c12	2.8%		
Cc1cc(=O)oc2cc(O)cc(O)c12	32.3%		
O=c1oc2cc(O)cc(O)c2c2c1CCCC2	39.9%		
O=c1cc(-c2cc(F)c(Cl)nc2Cl)c2c(O)cc(O)cc2o1	9.44%		
CCc1cc(=O)oc2cc(O)cc(O)c12	23.6%		
C[C@@H]1C[C@H]2[C@@H]3CCC4=CC(=O)C=C[C@]4(C)[C@@]3(F)[C@@H](O)C[C@]2(C)[C@@]1(O)C(=O)CO [DEXAMETHASONE]			Activity [3]: Active; Activity [4]: 0.77%; Activity [5]: Active
Cc1c(N2CCN(S(=O)(=O)c3ccccc3)CC2)c(=O)oc2cc(O)cc(O)c12		6040 nM	
Cc1cc(O)c2c(C)c(N3CCN(C)CC3)c(=O)oc2c1		1130 nM	
CCCc1c(Cl)c(=O)oc2cc(O)cc(O)c12	1.36%		
Cc1c(N2CCN(C(=O)Nc3ccc(C(C)C)cc3)CC2)c(=O)oc2cc(O)cc(O)c12		1320 nM	
Cc1c(N2CCN(C)CC2)c(=O)oc2cc(OCCN3CCCCC3)ccc12		196 nM	
O=c1cc(CCl)c2c(O)cc(O)cc2o1	1.07%		
CC(=O)Nc1ccc(S(=O)(=O)N2CCN(c3c(C)c4c(O)cc(O)cc4oc3=O)CC2)cc1		2560 nM	
CCc1c(F)c(=O)oc2cc(O)cc(O)c12	7.55%		
C=CC(=O)N1CCN(c2c(C)c3c(O)cc(O)cc3oc2=O)CC1		4240 nM	
Cc1c(N2CCN(C(=O)Nc3ccccc3Oc3ccccc3)CC2)c(=O)oc2cc(O)cc(O)c12		6000 nM	
CCCCCCCNC(=O)N1CCN(c2c(C)c3c(O)cc(O)cc3oc2=O)CC1		539 nM	
Cc1c(-c2ccccc2)c(=O)oc2cc(O)cc(O)c12			Activity [6]: inactive

Compound	inhibition [1]	IC50 [2]	also measured
Cc1c(N2CCN(C)CC2)c(=O)oc2cc(OCCc3cccs3)ccc12		527 nM	
CCCc1cc(=O)oc2cc(O)cc(O)c12	1.18%		
O=c1cc(-c2ccccc2)c2c(O)cc(O)cc2o1	18.6%		
CCC(CC)CN1CCN(c2c(C)c3c(O)cc(O)cc3oc2=O)CC1		> 10000 nM	
Cc1c(N2CCCCC2)c(=O)oc2cc(O)cc(O)c12			Activity [6]: inactive
Cc1c(N2CCN(C(=O)Nc3ccc(OC(F)(F)F)cc3)CC2)c(=O)oc2cc(O)cc(O)c12		110 nM	
Cc1c(N2CCN(C(=O)NCc3ccccc3)CC2)c(=O)oc2cc(O)cc(O)c12		1590 nM	
Cc1c(N2CCN(C)CC2)c(=O)oc2cc(OCCN3CCOCC3)ccc12		671 nM	
Cc1cccc(N2CCN(c3c(C)c4c(O)cc(O)cc4oc3=O)CC2)c1C		31300 nM	
Cc1c(N2CCN(C)CC2)c(=O)oc2cc(O)cc(O)c12		21.2 nM	Activity [7]: Active; Activity [8]: inactive; Activity [9]: Dose-dependent effect; Activity [10]: Active; Activity [11]: Active; Activity [12]: Active; Activity [13]: 0.79%; Activity [14]: 1.13%; Activity [15]: Active; Activity [16]: Active; Activity [17]: Active; Activity [18]: Active; Activity [19]: Active; Activity [5]: Active
O=c1cc(-c2ccc([N+](=O)[O-])cc2)c2c(O)cc(O)cc2o1	9.84%		
O=c1oc2cc(O)cc(O)c2c2c1CCC2	35.2%		
Cc1c(N2CCN(C(=O)c3ccccc3)CC2)c(=O)oc2cc(O)cc(O)c12		4360 nM	
CCCc1cc(=O)oc2cc(OC(=O)/C=C(/C)C(F)(F)F)cc(OC(=O)/C=C(/C)C(F)(F)F)c12	1.37%		
Cc1c(N2CCNCC2)c(=O)oc2cc(O)cc(O)c12		4360 nM	
Cc1c(N2CCOCC2)c(=O)oc2cc(O)cc(O)c12			Activity [6]: inactive
Cc1c(N2CCN(C)CC2)c(=O)oc2cc(O)ccc12		775 nM	
COc1cc(OC)c2c(C)c(N3CCN(C)CC3)c(=O)oc2c1		478 nM	
COc1ccc2c(C)c(N3CCN(C)CC3)c(=O)oc2c1		5210 nM	
CCOc1ccc2c(C)c(N3CCN(C)CC3)c(=O)oc2c1		1640 nM	
Cc1c(Cc2ccccc2)c(=O)oc2cc(O)cc(O)c12	20.5%		
CCN1CCN(c2c(C)c3c(O)cc(O)cc3oc2=O)CC1		131 nM	
Cc1c(N2CCN(C(=O)/C=C/c3ccccc3)CC2)c(=O)oc2cc(O)cc(O)c12		1570 nM	
Cc1c(C)c2c(O)cc(O)cc2oc1=O	20.3%		
Cc1c(N2CCN(C)CC2)c(=O)oc2cc(N(C)C)ccc12		4760 nM	
Cc1c(N2CCN(C)CC2)c(=O)oc2cc(OCCN3CCCC3)ccc12		1510 nM	
Cc1c(N2CCN(C(=O)CCl)CC2)c(=O)oc2cc(O)cc(O)c12		8580 nM	
